From the NIST ThermoML archive (doi:10.1016/j.jct.2008.09.002)

Assays:
[1] = xn = mol fraction of the nth substance listed; conditions: 101.3 kPa, Liquid, Vibrating tube method
[2] = molar heat capacity at constant pressure; xn = mol fraction of the nth substance listed; conditions: 101.3 kPa, Liquid, Small sample (50 mg) DSC
[3] = excess molar enthalpy (molar enthalpy of mixing); xn = mol fraction of the nth substance listed; conditions: 303.15 K, 101.3 kPa, Liquid, Calvet calorimetry

CCCCCCn1cc[n+](C)c1.F[B-](F)(F)F [1-hexyl-3-methylimidazolium tetrafluoroborate] + C[N+](=O)[O-]
Conditions | mass density, [1] [kg/m3] | molar heat capacity at constant pressure, [2] [J/K/mol]
293.15 K, x1 = 0.098 | 1148.7 | 136.3
293.15 K, x1 = 0.1933 | 1150.7 | 166.4
293.15 K, x1 = 0.3062 | 1151.2 | 202.6
293.15 K, x1 = 0.3988 | 1151.1 | 232.4
293.15 K, x1 = 0.4936 | 1150.9 | 262.8
293.15 K, x1 = 0.5941 | 1150.5 | 295.4
293.15 K, x1 = 0.5973 | 1150.5 | –
293.15 K, x1 = 0.6839 | 1150.1 | –
293.15 K, x1 = 0.6917 | 1150 | 326.6
293.15 K, x1 = 0.7702 | 1149.8 | 351.4
293.15 K, x1 = 0.7767 | 1149.7 | –
293.15 K, x1 = 0.786 | 1149.6 | –
293.15 K, x1 = 0.8514 | 1149.3 | –
293.15 K, x1 = 0.8665 | 1149.2 | 382.6
293.15 K, x1 = 0.8727 | 1149.2 | –
298.15 K, x1 = 0.098 | 1143.2 | 136.7
298.15 K, x1 = 0.1933 | 1145.8 | 167
298.15 K, x1 = 0.3062 | 1146.7 | 203.5
298.15 K, x1 = 0.3988 | 1146.9 | 233.4
298.15 K, x1 = 0.4936 | 1146.8 | 264
298.15 K, x1 = 0.5941 | 1146.6 | 296.8
298.15 K, x1 = 0.5973 | 1146.6 | –
298.15 K, x1 = 0.6839 | 1146.4 | –
298.15 K, x1 = 0.6917 | 1146.2 | 328.3
298.15 K, x1 = 0.7702 | 1146.1 | 353.4
298.15 K, x1 = 0.7767 | 1146 | –
298.15 K, x1 = 0.786 | 1146 | –
298.15 K, x1 = 0.8514 | 1145.8 | –
298.15 K, x1 = 0.8665 | 1145.7 | 384.8
298.15 K, x1 = 0.8727 | 1145.7 | –
303.15 K, x1 = 0.098 | 1137.7 | 137.2
303.15 K, x1 = 0.1933 | 1140.9 | 167.7
303.15 K, x1 = 0.3062 | 1142.3 | 204.4
303.15 K, x1 = 0.3988 | 1142.7 | 234.5
303.15 K, x1 = 0.4936 | 1142.8 | 265.4
303.15 K, x1 = 0.5941 | 1142.8 | 298.3
303.15 K, x1 = 0.5973 | 1142.8 | –
303.15 K, x1 = 0.6839 | 1142.6 | –
303.15 K, x1 = 0.6917 | 1142.5 | 330
303.15 K, x1 = 0.7702 | 1142.5 | 355.4
303.15 K, x1 = 0.7767 | 1142.4 | –
303.15 K, x1 = 0.786 | 1142.4 | –
303.15 K, x1 = 0.8514 | 1142.3 | –
303.15 K, x1 = 0.8665 | 1142.1 | 387
303.15 K, x1 = 0.8727 | 1142.2 | –
308.15 K, x1 = 0.098 | 1132.1 | 137.7
308.15 K, x1 = 0.1933 | 1136 | 168.4
308.15 K, x1 = 0.3062 | 1137.8 | 205.3
308.15 K, x1 = 0.3988 | 1138.5 | 235.6
308.15 K, x1 = 0.4936 | 1138.8 | 266.7
308.15 K, x1 = 0.5941 | 1138.9 | 299.8
308.15 K, x1 = 0.5973 | 1138.9 | –
308.15 K, x1 = 0.6839 | 1138.9 | –
308.15 K, x1 = 0.6917 | 1138.8 | 331.7
308.15 K, x1 = 0.7702 | 1138.9 | 357.3
308.15 K, x1 = 0.7767 | 1138.8 | –
308.15 K, x1 = 0.786 | 1138.8 | –
308.15 K, x1 = 0.8514 | 1138.7 | –
308.15 K, x1 = 0.8665 | 1138.6 | 389.1
308.15 K, x1 = 0.8727 | 1138.6 | –
313.15 K, x1 = 0.098 | 1126.6 | 138.3
313.15 K, x1 = 0.1933 | 1131.1 | 169.2
313.15 K, x1 = 0.3062 | 1133.4 | 206.3
313.15 K, x1 = 0.3988 | 1134.3 | 236.9
313.15 K, x1 = 0.4936 | 1134.8 | 268.2
313.15 K, x1 = 0.5941 | 1135.1 | 301.3
313.15 K, x1 = 0.5973 | 1135.1 | –
313.15 K, x1 = 0.6839 | 1135.2 | –
313.15 K, x1 = 0.6917 | 1135.1 | 333.4
313.15 K, x1 = 0.7702 | 1135.3 | 359.2
313.15 K, x1 = 0.7767 | 1135.2 | –
313.15 K, x1 = 0.786 | 1135.2 | –
313.15 K, x1 = 0.8514 | 1135.2 | –
313.15 K, x1 = 0.8665 | 1135.1 | 391.3
313.15 K, x1 = 0.8727 | 1135.1 | –
318.15 K, x1 = 0.098 | 1121 | 138.8
318.15 K, x1 = 0.1933 | 1126.2 | 169.9
318.15 K, x1 = 0.3062 | 1129 | 207.3
318.15 K, x1 = 0.3988 | 1130.2 | 238.1
318.15 K, x1 = 0.4936 | 1130.9 | 269.6
318.15 K, x1 = 0.5941 | 1131.3 | 302.8
318.15 K, x1 = 0.5973 | 1131.3 | –
318.15 K, x1 = 0.6839 | 1131.5 | –
318.15 K, x1 = 0.6917 | 1131.4 | 335
318.15 K, x1 = 0.7702 | 1131.6 | 361.1
318.15 K, x1 = 0.7767 | 1131.6 | –
318.15 K, x1 = 0.786 | 1131.6 | –
318.15 K, x1 = 0.8514 | 1131.7 | –
318.15 K, x1 = 0.8665 | 1131.6 | 393.4
318.15 K, x1 = 0.8727 | 1131.6 | –

[3]
Conditions | excess molar enthalpy [kcal/mol]
x1 = 0.1 | -0.0174
x1 = 0.2074 | -0.0296
x1 = 0.3028 | -0.0349
x1 = 0.4096 | -0.0382
x1 = 0.5095 | -0.038
x1 = 0.6072 | -0.0342
x1 = 0.7148 | -0.027
x1 = 0.7891 | -0.0225
x1 = 0.8821 | -0.012

C[N+](=O)[O-] [nitromethane] + CCCCn1cc[n+](C)c1.O=S(=O)([O-])C(F)(F)F
Conditions | mass density, [1] [kg/m3] | molar heat capacity at constant pressure, [2] [J/K/mol]
293.15 K, x2 = 0.0495 | 1173.6 | 121.1
293.15 K, x2 = 0.0972 | 1196.4 | 136
293.15 K, x2 = 0.2021 | 1229.9 | 168.8
293.15 K, x2 = 0.2955 | 1249.1 | 198.5
293.15 K, x2 = 0.4015 | 1264.3 | 231.5
293.15 K, x2 = 0.495 | 1274.2 | 261.4
293.15 K, x2 = 0.5993 | 1282.6 | 294.6
293.15 K, x2 = 0.6939 | 1288.6 | 324.4
293.15 K, x2 = 0.7858 | 1293.3 | 353.8
293.15 K, x2 = 0.8697 | 1296.9 | 380.5
293.15 K, x2 = 0.9286 | 1299.1 | 398.8
298.15 K, x2 = 0.0495 | 1167.4 | 121.4
298.15 K, x2 = 0.0972 | 1190.6 | 136.4
298.15 K, x2 = 0.2021 | 1224.7 | 169.4
298.15 K, x2 = 0.2955 | 1244.2 | 199.4
298.15 K, x2 = 0.4015 | 1259.7 | 232.6
298.15 K, x2 = 0.495 | 1269.7 | 262.6
298.15 K, x2 = 0.5993 | 1278.2 | 296.1
298.15 K, x2 = 0.6939 | 1284.3 | 326.1
298.15 K, x2 = 0.7858 | 1289.1 | 355.6
298.15 K, x2 = 0.8697 | 1292.8 | 382.7
298.15 K, x2 = 0.9286 | 1295.1 | 400.9
303.15 K, x2 = 0.0495 | 1161.2 | 121.8
303.15 K, x2 = 0.0972 | 1184.8 | 137
303.15 K, x2 = 0.2021 | 1219.4 | 170.1
303.15 K, x2 = 0.2955 | 1239.3 | 200.3
303.15 K, x2 = 0.4015 | 1255 | 233.9
303.15 K, x2 = 0.495 | 1265.2 | 263.9
303.15 K, x2 = 0.5993 | 1273.9 | 297.8
303.15 K, x2 = 0.6939 | 1280.1 | 327.9
303.15 K, x2 = 0.7858 | 1285 | 357.5
303.15 K, x2 = 0.8697 | 1288.8 | 385
303.15 K, x2 = 0.9286 | 1291.1 | 403.3
308.15 K, x2 = 0.0495 | 1154.9 | 122.3
308.15 K, x2 = 0.0972 | 1178.9 | 137.5
308.15 K, x2 = 0.2021 | 1214.2 | 170.9
308.15 K, x2 = 0.2955 | 1234.3 | 201.4
308.15 K, x2 = 0.4015 | 1250.3 | 235.2
308.15 K, x2 = 0.495 | 1260.7 | 265.3
308.15 K, x2 = 0.5993 | 1269.6 | 299.5
308.15 K, x2 = 0.6939 | 1275.9 | 329.8
308.15 K, x2 = 0.7858 | 1280.9 | 359.6
308.15 K, x2 = 0.8697 | 1284.7 | 387.4
308.15 K, x2 = 0.9286 | 1287.1 | 405.7
313.15 K, x2 = 0.0495 | 1148.8 | 122.8
313.15 K, x2 = 0.0972 | 1173.2 | 138.2
313.15 K, x2 = 0.2021 | 1209 | 171.7
313.15 K, x2 = 0.2955 | 1229.5 | 202.5
313.15 K, x2 = 0.4015 | 1245.7 | 236.6
313.15 K, x2 = 0.495 | 1256.3 | 266.8
313.15 K, x2 = 0.5993 | 1265.3 | 301.3
313.15 K, x2 = 0.6939 | 1271.7 | 331.8
313.15 K, x2 = 0.7858 | 1276.8 | 361.8
313.15 K, x2 = 0.8697 | 1280.7 | 389.9
313.15 K, x2 = 0.9286 | 1283.1 | 408.3
318.15 K, x2 = 0.0495 | 1142.5 | 123.3
318.15 K, x2 = 0.0972 | 1167.4 | 138.7
318.15 K, x2 = 0.2021 | 1203.7 | 172.5
318.15 K, x2 = 0.2955 | 1224.6 | 203.6
318.15 K, x2 = 0.4015 | 1241.1 | 238
318.15 K, x2 = 0.495 | 1251.8 | 268.3
318.15 K, x2 = 0.5993 | 1261 | 303.2
318.15 K, x2 = 0.6939 | 1267.5 | 334
318.15 K, x2 = 0.7858 | 1272.7 | 364.1
318.15 K, x2 = 0.8697 | 1276.7 | 392.6
318.15 K, x2 = 0.9286 | 1279.1 | 411.1

[3]
Conditions | excess molar enthalpy [kcal/mol]
x2 = 0.1022 | 0.00932
x2 = 0.1994 | 0.0136
x2 = 0.3029 | 0.0148
x2 = 0.4044 | 0.0141
x2 = 0.5067 | 0.0134
x2 = 0.5931 | 0.0108
x2 = 0.703 | 0.00741
x2 = 0.7814 | 0.0012
x2 = 0.8933 | -0.00215
